Assays:
panel of 442 kinases [1] = molecular target: T1, panel of 442 kinases (Homo sapiens, UniProt P42680); type: binding; settings: kinase TEC; compound concentration 10 µM
T1 construct: purchased KINOMEscan
T1 sequence (P42680 1-631): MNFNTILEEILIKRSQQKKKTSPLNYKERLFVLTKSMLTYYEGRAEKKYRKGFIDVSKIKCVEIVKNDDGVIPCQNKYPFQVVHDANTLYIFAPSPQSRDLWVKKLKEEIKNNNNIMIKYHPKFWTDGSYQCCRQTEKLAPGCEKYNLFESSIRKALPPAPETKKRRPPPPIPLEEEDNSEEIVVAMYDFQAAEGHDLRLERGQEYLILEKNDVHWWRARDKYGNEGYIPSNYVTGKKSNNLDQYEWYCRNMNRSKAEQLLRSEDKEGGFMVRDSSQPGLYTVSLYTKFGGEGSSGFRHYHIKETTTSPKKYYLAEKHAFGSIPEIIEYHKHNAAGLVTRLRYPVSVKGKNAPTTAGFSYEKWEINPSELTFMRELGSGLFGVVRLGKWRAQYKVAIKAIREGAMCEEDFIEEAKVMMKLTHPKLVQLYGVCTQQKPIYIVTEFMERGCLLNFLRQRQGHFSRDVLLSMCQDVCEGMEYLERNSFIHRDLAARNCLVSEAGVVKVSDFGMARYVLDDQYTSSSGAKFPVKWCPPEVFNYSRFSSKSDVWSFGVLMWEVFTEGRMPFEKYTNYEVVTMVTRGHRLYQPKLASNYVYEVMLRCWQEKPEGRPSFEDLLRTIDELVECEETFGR
Description: (§1) We assessed the selectivity of members of this scaffold using the KINOMEscan methodology across a near comprehensive panel of 442 kinases [[18,27]].

panel of 442 kinases [2] = molecular target: T2, panel of 442 kinases (Homo sapiens, UniProt Q13873); type: binding; settings: Compound Concentration 10 µM
T2 construct: purchased KINOMEscan
T2 sequence (Q13873 27-1038): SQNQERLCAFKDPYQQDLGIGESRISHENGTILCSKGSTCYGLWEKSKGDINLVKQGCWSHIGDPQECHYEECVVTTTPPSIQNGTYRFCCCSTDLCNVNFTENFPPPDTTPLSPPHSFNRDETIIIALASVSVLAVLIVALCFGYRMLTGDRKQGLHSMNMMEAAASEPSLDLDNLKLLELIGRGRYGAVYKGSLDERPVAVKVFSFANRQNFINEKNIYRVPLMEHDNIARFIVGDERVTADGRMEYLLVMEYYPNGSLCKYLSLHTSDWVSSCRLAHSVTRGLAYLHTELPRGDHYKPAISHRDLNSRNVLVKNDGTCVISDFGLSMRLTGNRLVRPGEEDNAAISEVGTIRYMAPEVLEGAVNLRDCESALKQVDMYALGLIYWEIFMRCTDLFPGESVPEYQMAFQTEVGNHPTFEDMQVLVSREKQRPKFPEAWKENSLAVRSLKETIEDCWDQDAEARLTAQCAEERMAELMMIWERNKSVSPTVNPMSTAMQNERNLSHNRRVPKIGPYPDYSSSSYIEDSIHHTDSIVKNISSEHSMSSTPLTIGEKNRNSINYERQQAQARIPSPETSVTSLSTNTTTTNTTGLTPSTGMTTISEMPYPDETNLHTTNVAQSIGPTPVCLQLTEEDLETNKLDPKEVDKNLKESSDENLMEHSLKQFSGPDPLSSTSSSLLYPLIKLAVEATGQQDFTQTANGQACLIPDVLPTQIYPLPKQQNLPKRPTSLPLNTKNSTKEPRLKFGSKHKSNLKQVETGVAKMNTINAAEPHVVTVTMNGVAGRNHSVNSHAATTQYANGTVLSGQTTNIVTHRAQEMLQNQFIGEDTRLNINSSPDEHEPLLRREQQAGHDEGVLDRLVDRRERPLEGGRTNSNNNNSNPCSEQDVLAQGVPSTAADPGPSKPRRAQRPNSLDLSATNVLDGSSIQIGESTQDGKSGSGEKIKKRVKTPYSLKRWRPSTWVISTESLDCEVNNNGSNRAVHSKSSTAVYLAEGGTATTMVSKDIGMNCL
Description: as §1

For COc1cc(C(=O)N2CCC(N3CCN(C)CC3)CC2)ccc1Nc1ncc2c(n1)N(C)c1ccccc1C(=O)N2C [15 (LRRK2-IN-1)], the “% Ctrl, TEC” value (panel of 442 kinases [1]) was 100 % Ctrl and the “KINOMEscan: BMPR2” value (panel of 442 kinases [2]) was 100.

COc1cc(C(=O)N2CCC(N3CCN(C)CC3)CC2)ccc1Nc1ncc2c(n1)N1CCc3cccc(c31)C(=O)N2C [Compound 24] was tested, and the “% Ctrl, TEC” value (panel of 442 kinases [1]) was 100 % Ctrl.

In the case of COc1cc(C(=O)N2CCC(N3CCN(C)CC3)CC2)ccc1Nc1ncc2c(n1)N(C1CCCC1)c1ccccc1C(=O)N2C [Compound 25, 11-cyclopentyl-2-((2-methoxy-4-(4-(4-methylpiperazin-1-yl)piperidine-1-carbonyl)phenyl)amino)-5-methyl-5H-benzo[e]pyrimido[5,4-b][1,4]diazepin-6(11H)-one], the “% Ctrl, TEC” value (panel of 442 kinases [1]) is reported as 91 % Ctrl and the “KINOMEscan: BMPR2” value (panel of 442 kinases [2]) is reported as 100.

With CCOc1cc(C(=O)N2CCC(N3CCN(C)CC3)CC2)ccc1Nc1ncc2c(n1)N(C1CCCC1)c1ccccc1C(=O)N2C [Compound 26] the “% Ctrl, TEC” value (panel of 442 kinases [1]) was 100 % Ctrl and the “KINOMEscan: BMPR2” value (panel of 442 kinases [2]) was 93.

Source: PMC3914206
